Measurements: ChEMBL document CHEMBL5042504 (J Med Chem, 2022)
Calls of active or inactive are those of the source. No cut-off for these calls is given here.

Columns and labels:
MV4-11 [1] = test: cells; conditions: Homo sapiens, MV4-11, 48 h
Description: Antiproliferative activity against human MV4-11 AML cells assessed as cell viability measured after 48 hrs by multiplate reader method

Histone deacetylase 1 [2] = target: T1, Histone deacetylase 1 (Homo sapiens, UniProt Q13547); test: Inhibition of human recombinant HDAC1 using Boc-Lys(acetyl)-AMC substrate incubated for 2 hrs by fluorescence based assay
[3] = Cmax in CD-1 mouse at 5 mg/kg, iv measured upto 24 hrs; format: ADME, organism-based; design: route intravenous, dose 5 mg/kg, time <=24; conditions: in vivo
[4] = Half life in CD-1 mouse at 5 mg/kg, iv measured upto 24 hrs; format: ADME, organism-based; conditions: in vivo
[5] = AUC (0 to infinity) in CD-1 mouse at 5 mg/kg, iv measured upto 24 hrs; format: ADME, organism-based; design: route intravenous, dose 5 mg/kg, time <=24; conditions: in vivo
MV4-11 [6] = test: Down regulation of p21 expression in human MV4-11 cells at 200 nM measured after 24 hrs by Western blot analysis; format: functional, cell-based
MV4-11 [7] = test: Induction of apoptosis in human wt-p53 MV4-11 cells assessed as apoptotic cells at 200 nM measured after 24 hrs by FITC Annexin V/propidium iodide staining based flow cytometry (reference value: 9.14%); format: functional
MV4-11 [8] = test: Induction of apoptosis in human wt-p53 MV4-11 cells assessed as apoptotic cells at 500 nM measured after 24 hrs by FITC Annexin V/propidium iodide staining based flow cytometry (reference value: 9.14%); format: functional
HL-60 [9] = test: Induction of apoptosis in human p53 null HL-60 cells assessed as […] at 200 nM measured after 24 hrs by FITC Annexin V/propidium iodide staining based flow cytometry (reference value: 20.55%); format: functional; conditions: read-out: Activity
MV4-11 [10] = test: Cell cycle arrest in human […] MV4-11 cells assessed as accumulation at G2/M-phase at 500 nM measured after 24 hrs realtive to control; format: functional, cell-based
HL-60 [11] = test: Cell cycle arrest in human […] HL60 cells assessed as accumulation at G2/M-phase at 200 nM measured after 24 hrs realtive to control; format: functional, cell-based
HL-60 [12] = test: Cell cycle arrest in human […] HL60 cells assessed as accumulation at G2/M-phase at 500 nM measured after 24 hrs realtive to control; format: functional, cell-based
[13] = Antitumor activity against human MV4-11 cells xenografted in BALB/c mouse assessed as tumor growth inhibition at 2 to 4 mg/kg, po administered for 24 days; format: functional; conditions: dose 2-4 mg/kg, time 24 day
[14] = Drug uptake in BALB/c mouse xenografted with human AML MV4-11 cells assessed as tumor tissue at 4mg/kg, po measured after 0.5 to 6 hrs by LC-MS/MS; format: ADME, organism-based; conditions: in vivo, time 0.5-6 hrs
Histone deacetylase 1 [15] = target: T1, Histone deacetylase 1; test: Mixed type inhibition of human HDAC1 (unknown origin) by Lineweaver-Burk plot analysis
MV4-11 [16] = test: Antitumor activity against human MV4-11 cells xenografted in balb/c mouse assessed as accumulation of AcHH3 protein level at 4 mg/kg, po measured after 2 hrs; format: functional, organism-based
MV4-11 [17] = test: Antitumor activity against human MV4-11 cells xenografted in balb/c mouse assessed as accumulation of AcHH4 protein level at 4 mg/kg, po measured after 8 hrs; format: functional, organism-based
[18] = Drug distribution in BALB/c mouse kidney measured at 4 mg/kg, po or ip after 0.5 hrs after 0.5 hrs; format: ADME, organism-based; conditions: in vivo
[19] = Drug distribution in BALB/c mouse gut measured at 4 mg/kg, po or ip after 0.5 hrs after 0.5 hrs; format: ADME, organism-based; conditions: in vivo
[20] = Drug distribution in BALB/c mouse heart measured at 4 mg/kg, po or ip after 0.5 hrs after 0.5 hrs; format: ADME, organism-based; conditions: in vivo
[21] = Drug distribution in BALB/c mouse brain measured at 4 mg/kg, po or ip after 0.5 hrs after 0.5 hrs; format: ADME, organism-based; conditions: in vivo
[22] = Drug distribution in BALB/c mouse lung measured at 4 mg/kg, po or ip after 0.5 hrs after 0.5 hrs; format: ADME, organism-based; conditions: in vivo
[23] = Drug distribution in BALB/c mouse liver measured at 4 mg/kg, po or ip after 2 to 8 hrs after 0.5 hrs; format: ADME, organism-based; conditions: in vivo, time 2-8 hrs
[24] = Drug distribution in BALB/c mouse kidney measured at 4 mg/kg, po or ip after 2 to 8 hrs after 0.5 hrs; format: ADME, organism-based; conditions: in vivo, time 2-8 hrs
[25] = Drug distribution in BALB/c mouse gut measured at 4 mg/kg, po or ip after 2 to 8 hrs after 0.5 hrs; format: ADME, organism-based; conditions: in vivo, time 2-8 hrs
[26] = Drug distribution in BALB/c mouse heart measured at 4 mg/kg, po or ip after 2 to 8 hrs after 0.5 hrs; format: ADME, organism-based; conditions: in vivo, time 2-8 hrs
[27] = Drug metabolism in BALB/c mouse liver assessed as metabolized compound; format: ADME, tissue-based
[28] = Toxicity in BALB/c mouse xenografted with MV4-11 cells assessed as body weight loss
[29] = Toxicity in BALB/c mouse assessed as induction of pathological changes in lung by H and E staining based analysis; format: tissue-based; conditions: in vivo
[30] = Toxicity in BALB/c mouse assessed as induction of pathological changes in spleen by H and E staining based analysis; format: tissue-based; conditions: in vivo
[31] = Drug distribution in tumor of BALB/c mouse xenografted with human MV4-11 cells assessed as measured after 0.5 hrs; format: ADME; conditions: read-out: Ct
[32] = Drug distribution in tumor of BALB/c mouse xenografted with human MV4-11 cells assessed as measured after 8 hrs; format: ADME; conditions: read-out: Drug uptake

T1 sequence (Q13547 whole entry): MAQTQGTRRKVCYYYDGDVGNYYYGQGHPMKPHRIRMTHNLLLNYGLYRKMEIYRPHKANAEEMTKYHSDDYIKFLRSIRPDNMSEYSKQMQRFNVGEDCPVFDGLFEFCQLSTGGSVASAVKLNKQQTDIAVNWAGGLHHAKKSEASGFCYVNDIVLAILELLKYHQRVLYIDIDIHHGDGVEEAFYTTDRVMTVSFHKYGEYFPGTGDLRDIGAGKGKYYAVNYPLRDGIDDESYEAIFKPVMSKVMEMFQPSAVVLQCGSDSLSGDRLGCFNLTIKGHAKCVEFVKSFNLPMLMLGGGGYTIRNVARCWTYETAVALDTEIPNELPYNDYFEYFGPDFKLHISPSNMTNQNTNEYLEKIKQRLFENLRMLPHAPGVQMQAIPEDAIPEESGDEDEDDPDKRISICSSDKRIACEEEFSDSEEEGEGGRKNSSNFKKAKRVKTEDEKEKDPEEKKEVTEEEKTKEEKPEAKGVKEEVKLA

CCCNNC(=O)c1ccc(CNC(=O)/C=C/c2ccccc2)cc1
IC50 (MV4-11 [1]): 36.4 nM

CCCNNC(=O)c1ccc(CNC(=O)c2cc3ccccc3[nH]2)cc1
IC50 (Histone deacetylase 1 [2]): 3.01 nM
Cmax [3]: 21600 ng/mL
half-life [4]: 405 min
AUC [5]: 32179 ng·h/mL
Activity (MV4-11 [6]): Active
Activity (MV4-11 [7]): 71.2%
Activity (MV4-11 [8]): 88.1%
viability at 0.2 µM (HL-60 [9]): 32.6%
Activity (MV4-11 [10]): Active
Activity (HL-60 [11]): Active
Activity (HL-60 [12]): Active
TGI [13]: 78.9%
Drug uptake [14]: Active
IC50 (Histone deacetylase 1 [15]): 1.5 nM
Activity (MV4-11 [16]): Active
Activity (MV4-11 [17]): Active
Drug uptake [18]: Active
Drug uptake [19]: Active
Drug uptake [20]: Active
Drug uptake [21]: Active
Drug uptake [22]: Active
Drug uptake [23]: Active
Drug uptake [24]: Active
Drug uptake [25]: Active
Drug uptake [26]: Active
Drug metabolism [27]: Metabolite_Detected
Activity [28]: Non-Toxic
Activity [29]: Non-Toxic
Activity [30]: Non-Toxic
concentration at 0.5 h [31]: 1130 ng/g
concentration at 8 h [32]: 151 ng/g
